Data on one compound can be found in patent US20130210823A1, “METHODS FOR C[…]” (SYNGENTA PARTICIPATIONS AG, priority 2010, published 2013).

For the data set, the system named is Varroa destructor. Nature of the data set: Varroa mite contact test on Potter-tower treated Petri dishes. Type of data set: in vivo. Conditions: adult V. destructor, contact with spray deposit, concentration of formulation 1 × 10^−−4 g, assessed after 72 h. The text has this:
Varroa mites came from bee colonies provided by a beekeeper. The mite population is kept in a dedicated apiary. For screening needs adults are collected on the same day as the beginning of experiment, either in beehive cells containing brood of worker bees or drones, or directly on bees emerging during collection.
Bee nymphs needed to feed adults of Varroa mites during experiments are choosen within the frames from which Varroa is also collected. They are collected at the stage of nymph with white or pink coloured eyes according methology described by Rembold et Kremer (Characterization of postembryonic developmental stages of the female castes of the honey bee, Apis mellifera L. Apidologie 11: 29-38).
3 cm diameter Petri dishes were used as confinement material of Varroa mites during experiments. Covers with wire mesh were put on the top of each Petri dish in order to avoid the mites to run away but also to keep favorable humidity for the bee nymph. […]
After treatment of Petri dishes, five (5) adults of V. destructor collected from the brood were placed in the petri dish. […] During a test 20 Varroa adults are tested for a given compound (4 dishes of 5 individuals).Mortality levels are assessed after 72 h (mites which are able to move their legs are considered as alive). […]

SMILES strings stand for the structures.

With `CC1=NNC(=O)N(N=Cc2cccnc2)C1` [pymetrozine, 2,3,4,5-tetrahydro-3-oxo-4-[(pyridin-3-yl)methyleneamino]-6-methyl-1,2,4-triazine], the “% mortality of Varroa” value was 90%.
